According to patent US20090148907A1, “NOVEL FRUCTOFURANOSIDASE ACTIVITY FOR OBTAINING THE PREBIOTIC OLIGOSACCHARIDE 6-KESTOSE” (CONSEJO SUPERIOR DE INVESTIGACIONES CIENTIFICAS, priority 2005, published 2009):

How the values were obtained:
Assay type in all cases: biochemical
[1] = target: T1, fructofuranosidase of S. occidentalis (pure enzyme F-3) (Schwanniomyces occidentalis, UniProt P24133); experiment: Transfructosidase (transglycosylation) activity of pure enzyme F-3 on sucrose, HPLC; details: for Composition of the system: final reaction time (144 h), F-3 0.5 U/ml, 50° C.
T1 construct: the enzyme object of the invention is extracellularly released; endogenous in cells; host or cells: Schwanniomyces occidentalis culture supernatant; concentrated (F-1), then DEAE-Sephacel at pH 7 (F-2) and at pH 5 (F-3)
T1 sequence (P24133 other isoform, or with tags, fused parts or gaps with the stated changes): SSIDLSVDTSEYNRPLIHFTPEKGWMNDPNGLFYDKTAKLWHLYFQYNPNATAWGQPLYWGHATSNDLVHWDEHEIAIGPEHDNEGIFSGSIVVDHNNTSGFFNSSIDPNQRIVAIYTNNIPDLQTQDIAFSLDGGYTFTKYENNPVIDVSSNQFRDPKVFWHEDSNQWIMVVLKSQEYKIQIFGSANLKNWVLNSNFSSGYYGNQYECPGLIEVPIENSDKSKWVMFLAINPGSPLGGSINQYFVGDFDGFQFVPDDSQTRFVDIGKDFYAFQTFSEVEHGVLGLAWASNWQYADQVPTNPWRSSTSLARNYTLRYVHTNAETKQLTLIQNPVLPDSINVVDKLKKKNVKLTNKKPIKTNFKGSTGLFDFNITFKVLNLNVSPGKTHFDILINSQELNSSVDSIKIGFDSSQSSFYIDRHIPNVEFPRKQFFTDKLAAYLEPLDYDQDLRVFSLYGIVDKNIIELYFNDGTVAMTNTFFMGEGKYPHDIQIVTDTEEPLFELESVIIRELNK
Description: The transglycosylation activity of the pure enzyme (fraction F-3) was assayed. A reaction was prepared using a high concentration of sucrose (510 g/l) and a final enzymatic activity in the reaction mixture of approximately 0.5 U/ml. […] It is seen that the profile of the obtained products is very similar in both cases, specifically the 6-kestose/1-kestose ratio that was obtained was 3.3.
After 144 hours of reaction, 42.6 g/l of FOS were obtained. The total percentage (w/w) of fructooligosaccharides was 8.4% this value being with respect to the total weight of carbohydrates in the medium.
A high concentration solution of sucrose ([…]) in 0.2 M sodium acetate buffer pH 5.6 was prepared. The fructofuranosidase was added until a final concentration in the reaction mixture of 0.5 U/ml (one unit U is the enzymatic activity corresponding to releasing a micromole of reducing sugars per minute, using 100 g/l of sucrose as substrate, in 0.2 M sodium acetate buffer pH 5.6, at 50° C.). The reaction mixture was incubated for 144 hours at 50° C., with orbital stirring at 700 rpm. Aliquots were extracted at different times, incubated for 5 minutes at 80° C. to inactivate the enzyme, diluted 1:2 (v/v) with water centrifuged for 5 minutes at 6000 rpm in an eppendorf tube with a 0.45 μm filter and analyzed by HPLC liquid chromatography. The profile of the products formed is seen in FIG. 7. Two trisaccharides were obtained: a majority trisaccharide, identified as 6-kestose, and another minority trisaccharide, identified as 1-kestose. At the final reaction time (144 h), the composition of the system was: 12.7% fructose, 14.80/glucose. 64.1% sucrose, 2.4% 1-kestose and 5.9% 6-kestose).

[2] = target: T2, Fructofuranosidase activity of the F-3 fraction of S. occidentalis (Schwanniomyces occidentalis, UniProt P24133); experiment: Fructofuranosidase (hydrolytic) activity of the purified enzyme F-3 on different substrates; details: purified protein F-3; 1% substrate
T2 construct: the enzyme object of the invention is extracellularly released; endogenous in cells; host or cells: Schwanniomyces occidentalis culture supernatant; concentrated (F-1), then DEAE-Sephacel at pH 7 (F-2) and at pH 5 (F-3)
T2 sequence (P24133 other isoform, or with tags, fused parts or gaps with the stated changes): as above
Description: (§1) The cell free fraction was obtained by centrifugation (F-0) of a culture of S. occidentalis ATCC26077 grown at 29° C. and 235 rpm. Fructofuranosidase activity was assayed in the latter, determining the glucose release on different substrates. A colorimetric assay and the standard methodology were used. The released glucose was quantified using the glucose oxidase-peroxidase coupled reaction: 0.4 ml of the solution to be determined was mixed with 0.1 ml of A:B (20:1) solution (A: 0.85 U/ml glucose oxidase, 0.40 U/ml peroxidase in sodium phosphate buffer pH 5; B: 0.6% O-dianisidine). It was incubated for 30 minutes at 37° C. and spectrophotometrically quantified at 450 nm. A standard glucose curve (0 to 100 μg/ml) was used. The fructofuranosidase activity unit is defined in μmol/ml min of glucose determined in the described conditions.
The hydrolytic activity of the purified enzyme (F-3), following the described method, was assayed on different substrates. The maximum activity level is obtained on sucrose. Activity on lactose, leucrose, turanose or palatinose was not observed.

[3] = target: T3, Fructofuranosidase activity of the extracellular fraction of S. occidentalis (Schwanniomyces occidentalis, UniProt P24133); experiment: Fructofuranosidase activity of the extracellular fraction on different carbohydrates (glucose release, glucose oxidase-peroxidase); details: extracellular fraction concentrated (30 kDa filter) and dialysed; activity on the named substrate
T3 construct: the enzyme object of the invention is extracellularly released; endogenous in cells; host or cells: Schwanniomyces occidentalis (ATCC26077 named) grown in lactose medium; the cell-free supernatant was concentrated by 30 kDa tangential filtration and dialysed
T3 sequence (P24133 other isoform, or with tags, fused parts or gaps with the stated changes): as above
Description: as §1
The cell free fraction, obtained by centrifugation, of a culture of S. occidentalis grown in lactose medium: 0.3% (w/v) YNB (yeast nitrogen base w/o amino acids, DIFCO), 3.5% (w/v) bactopeptone (DIFCO), 0.5% (w/v) KH2 PO4, 1% (w/v) MgSO4.7H2O, 1% (w/v) (NH4)SO4, and 2% lactose as a carbon source (R. D. Klein et al., “Purification and characterization of invertase from to novel industrial yeast, Schwanniomyces occidentalis”, Prep. Biochem, 1989, vol 19, pp. 293-319), grown until an optical density of 8.34 OD 660 nm, was concentrated using a tangential filtration system (30 kDa filter) followed by dialysis against 20 mM HCl-Tris pH 7 for 2 hours at a temperature of 4° C. and was assayed on different substrates.

[4] = target: T4, fructofuranosidase of S. occidentalis (enzymatic concentrate F-1) (Schwanniomyces occidentalis, UniProt P24133); experiment: Transfructosidase (transglycosylation) activity of enzymatic concentrate F-1 on sucrose, HPLC; details: for Composition of the system: maximum point of FOS production (4 h), F-1 5 U/ml; for Composition of the system / Composition of the reaction mixture: 50° C.; for Composition of the reaction mixture: F1 5 U/ml, pH 5.6
T4 construct: the enzyme object of the invention is extracellularly released; endogenous in cells; host or cells: Schwanniomyces occidentalis (ATCC26077 named) grown in lactose medium; the cell-free supernatant was concentrated by 30 kDa tangential filtration and dialysed
T4 sequence (P24133 other isoform, or with tags, fused parts or gaps with the stated changes): as above
Description: The transglycosylation activity of the enzymatic concentrate obtained by ultrafiltration (F-1) was assayed. A reaction was prepared using a high concentration of sucrose (510 g/l), to favor the formation of glycosidic bonds in detriment of the hydrolysis reaction, and a final activity enzymatic in the reaction mixture of approximately 5 U/ml. […] On one hand, fructose (peak 1) and glucose (peak 2) are formed as hydrolytic products. On the other hand, two trisaccharides are obtained: a majority trisaccharide (peak 4), identified as 6-kestose [β-D-Fru-(2→6)-β-D-Fru-(2→1)-α-D-Glu] and another minority trisaccharide (peak 5), identified as 1-kestose. [β-D-Fru-(2→1)-β-D-Fru-(2→1)-α-D-Glu]. The sucrose that has not reacted corresponds to peak 3.
It is observed that the 6-kestose/1-kestose molar ratio reaches a maximum value of 3.3 between 4 and 6 hours of reaction.
A high concentration solution of sucrose (510 g/l) in 0.2 M sodium acetate buffer pH 5.6 was prepared. The fructofuranosidase was added until a final concentration in the reaction mixture of 5 U/ml (one unit U is the enzymatic activity corresponding to release of a micromole of reducing sugars per minute, using 100 g/l of sucrose as substrate, in 0.2 M sodium acetate buffer pH 5.6, at 50° C.). The reaction mixture was incubated for 24 hours at 50° C., with orbital stirring at 700 rpm. Aliquots were extracted at different times, incubated for 5 minutes at 80° C. to inactivate the enzyme, diluted 1:2 (v/v) with water, centrifuged for 5 minutes at 6000 rpm in an eppendorf tube with a 0.45 μm filter and analyzed by HPLC liquid chromatography. The profile of the products formed is seen in FIG. 5. It is observed that the fructofuranosidase of S. occidentalis has transfer activity (transfructosylation). Two trisaccharides are obtained: one majority trisaccharide, 6-kestose [3-D-Fru-(2→6)-β-D-Fru-(2→1)-α-D-Glu]and another minority trisaccharide, identified as 1-kestose [β-D-Fru-(2→1)-β-D-Fru-(2→1)-α-D-Glu]. In the maximum point of FOS production (4 h), the composition of the system was: 8.7% fructose, 11.9% glucose, 70.8% sucrose, 2.0% 1-kestose and 6.6% 6-kestose.

Row | SMILES | Composition of the system [1] [%] | Activity specific [2] [mU/μg] | Specific activity [3] [mU/μg] | Composition of the system [4] [%] | Composition of the reaction mixture ([4]; reaction time 1 h) [grams/liter] | Composition of the reaction mixture ([4]; reaction time 1.5 h) [grams/liter] | Composition of the reaction mixture ([4]; reaction time 4 h) [grams/liter] | Composition of the reaction mixture ([4]; reaction time 6 h) [grams/liter] | Composition of the reaction mixture ([4]; reaction time 24 h) [grams/liter] | 6-kestose/1-kestose ratio ([1]; pure enzyme F-3 0.5 U/ml, 144 hours) | 6-kestose/1-kestose molar ratio, maximum value ([4]; between 4 and 6 hours of reaction, F-1)
1 | OC[C@H]1O[C@@](CO)(OC[C@@]2(O[C@H]3O[C@H](CO)[C@@H](O)[C@H](O)[C@H]3O)O[C@H](CO)[C@@H](O)[C@@H]2O)[C@@H](O)[C@@H]1O [1-kestose, β-D-Fru-(2→1)-β-D-Fru-(2→1)-α-D-Glu] | 2.4 | 6.3 | 2.2 | 2.0 | 2.8 | 6.4 | 10.1 | 9.6 | 4.5 |  | 
2 | OC[C@H]1O[C@@](CO)(OC[C@H]2O[C@@](CO)(O[C@H]3O[C@H](CO)[C@@H](O)[C@H](O)[C@H]3O)[C@@H](O)[C@@H]2O)[C@@H](O)[C@@H]1O [6-kestose, β-D-Fru-(2→6)-β-D-Fru-(2→1)-α-D-Glu] | 5.9 |  |  | 6.6 | 5.4 | 12.7 | 33.5 | 31.0 | 10.6 | 3.3 | 3.3
3 | O=C(CO)[C@@H](O)[C@H](O)[C@H](O)CO [fructose] | 12.7 |  |  | 8.7 | 5.3 | 16.8 | 44.3 | 54.8 | 113.6 |  | 
4 | OC[C@H]1O[C@@](CO)(O[C@H]2O[C@H](CO)[C@@H](O)[C@H](O)[C@H]2O)[C@@H](O)[C@@H]1O [sucrose, α-D-Glu-(1→2)-β-D-Fru] | 64.1 | 109 | 24 | 70.8 | 487.3 | 453.8 | 361.6 | 343.7 | 240.9 |  | 
